Measurements taken from paper PMC8279409, “Novel Mixed NOP/Opioid Receptor Peptide Agonists” (Journal of Medicinal Chemistry, 2021).
Values joined by “and” are separate entries in the source; they are usually repeats but may differ in a detail not shown here. Equal entries are not always repeated. Where two headings read alike, the source gives them in different places. Where a SMILES comes first, the peptide text is derived from it. Where no end group is shown, it is not given here. [ ]: non-standard residue; d: D form. Phe(4-NH2) = Nc1ccc(C[C@H](N)C(=O)O)cc1; Dmt = Cc1cc(O)cc(C)c1C[C@H](N)C(=O)O; Phg = N[C@H](C(=O)O)c1ccccc1; Nle = CCCC[C@H](N)C(=O)O; Dab = NCC[C@H](N)C(=O)O

Key:
human NOP receptor = molecular target: T1, human NOP receptor (Homo sapiens, UniProt P41146); test: Calcium mobilization, NOP receptor; format: cell-based; conditions: for NOP pEC50 (CL95%): CHO cells coexpressing human NOP and Gαqi5, Fluo-4 AM, 37 °C, mean of at least three experiments in duplicate, CL95% in brackets; for NOP/mu CR (concentration ratio): calcium mobilization, NOP versus mu; for Emax: mean ± SEM of at least three experiments in duplicate, SEM
T1 construct: expressed in transfected cells; host or cells: CHO cells stably coexpressing the receptor and chimeric Gαqi5
T1 sequence (P41146 whole entry): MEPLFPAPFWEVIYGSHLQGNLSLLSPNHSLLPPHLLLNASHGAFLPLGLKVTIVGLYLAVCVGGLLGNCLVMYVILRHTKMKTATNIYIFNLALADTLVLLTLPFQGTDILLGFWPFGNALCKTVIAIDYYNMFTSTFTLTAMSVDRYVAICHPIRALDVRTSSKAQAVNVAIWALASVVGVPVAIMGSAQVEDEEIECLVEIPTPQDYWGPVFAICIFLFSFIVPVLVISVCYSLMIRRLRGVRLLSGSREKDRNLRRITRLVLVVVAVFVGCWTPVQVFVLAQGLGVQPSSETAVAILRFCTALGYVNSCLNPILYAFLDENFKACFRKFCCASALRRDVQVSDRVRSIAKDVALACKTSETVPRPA
Method: CHO cells stably coexpressing the human NOP or kappa or the mu receptor and the C-terminally modified Gαqi5 and CHO cells coexpressing the delta receptor and the GαqG66Di5 protein were generated and cultured as described previously.[45],[46] Cells were maintained in Dulbecco’s modified Eagle’s medium/nutrient mixture F-12 (DEMEM/F-12) supplemented with 10% FBS, 100 U/mL penicillin and 100 μg/mL streptomycin, 100 μg/mL hygromicin B, and 200 μg/mL G418 and cultured at 37 °C in 5% CO2 humidified air. Cells were seeded at a density of 50,000 cells/well into 96-well black, clear-bottom plates. The following day, the cells were incubated with Hanks’ balanced salt solution (HBSS) supplemented with 2.5 mM probenecid, 3 μM of the calcium-sensitive fluorescent dye Fluo-4 AM, and 0.01% pluronic acid for 30 min at 37 °C. After that time, the loading solution was aspirated and 100 μL/well of HBSS supplemented with 20 mM HEPES, 2.5 mM probenecid, and 500 μM brilliant black was added. Serial dilutions were carried out in HBSS/HEPES (20 mM) buffer (containing 0.02% BSA fraction V). After placing both plates (cell culture and master plate) into the fluorometric imaging plate reader FlexStation II (Molecular Devices, Sunnyvale, CA), fluorescence changes were measured. On-line additions were carried out in a volume of 50 μL/well. To facilitate drug diffusion into the wells, the present studies were performed at 37 °C. Maximum change in fluorescence, expressed as percent over the baseline fluorescence, was used to determine agonist response.
The pharmacological terminology adopted in this paper is consistent with IUPHAR recommendations.[59] All data are expressed as the mean ± standard error of the mean (SEM) of at least three experiments performed in duplicate. […] Concentration-response curves to agonists were fitted to the classical four-parameter logistic nonlinear regression model:
Effect = Baseline + (Emax – Baseline)/(1 + 10^(LogEC50 – Log[compound]) × Hillslope). Curve fitting was performed using PRISM 6.0 (GraphPad Software Inc., San Diego).

human mu receptor = molecular target: T2, human mu receptor (Homo sapiens, UniProt P35372); test: Calcium mobilization, mu opioid receptor; format: cell-based; conditions: for mu pEC50 (CL95%): CHO cells coexpressing human mu receptor and Gαqi5, Fluo-4 AM, 37 °C, mean of at least three experiments in duplicate, CL95% in brackets; for pEC50_mu: molecular formula strings CSV, repeats calcium mobilization values of Tables 1-3; for activation at 10 µM: read-out: mu effect at 10 μM (crc incomplete), Table 1 series, mean ± SEM; for activation at 10 µM / Emax: percent over the baseline fluorescence, SEM; for Emax: mean ± SEM of at least three experiments in duplicate
T2 construct: expressed in transfected cells; host or cells: CHO cells stably coexpressing the receptor and chimeric Gαqi5
T2 sequence (P35372 whole entry): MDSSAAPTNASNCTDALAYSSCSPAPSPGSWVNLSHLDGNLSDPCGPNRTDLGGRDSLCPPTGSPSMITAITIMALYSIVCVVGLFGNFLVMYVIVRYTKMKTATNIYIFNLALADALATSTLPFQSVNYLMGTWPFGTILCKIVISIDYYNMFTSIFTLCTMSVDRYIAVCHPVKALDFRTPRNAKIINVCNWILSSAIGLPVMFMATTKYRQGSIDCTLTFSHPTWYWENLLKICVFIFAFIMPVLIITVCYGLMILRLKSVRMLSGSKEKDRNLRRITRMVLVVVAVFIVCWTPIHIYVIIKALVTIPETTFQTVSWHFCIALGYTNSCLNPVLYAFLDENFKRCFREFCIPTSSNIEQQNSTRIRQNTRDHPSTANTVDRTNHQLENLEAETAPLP

[1] = read-out: NOP Emax ± S.E.M., Table 1 series, maximum change in fluorescence as percent over the baseline fluorescence
[2] = read-out: NOP Emax ± S.E.M., Table 2 series, percent over the baseline fluorescence
[3] = read-out: mu Emax ± S.E.M., Table 2 series

Q: For `C[C@H](NC(=O)CNC(=O)[C@H](CCN)NC(=O)[C@H](Cc1ccccc1)NC(=O)CNC(=O)CNC(=O)[C@@H](N)Cc1ccc(O)cc1)C(=O)N[C@@H](CCCNC(=N)N)C(=O)N[C@@H](CCCCN)C(=O)N[C@@H](CO)C(=O)N[C@@H](C)C(=O)N[C@@H](CCCNC(=N)N)C(=O)N[C@@H](CCCCN)C(N)=O` [Compound 10, [Tyr^1,Dab^5]N/OFQ(1-13)-NH2] (H-YGGF[Dab]GARKSARK-NH2), which “NOP pEC50 (CL95%)” value (human NOP receptor; Table 1 series, FlexStation II) is on record?
A: 6.43 (6.28–6.58)

Q: And the “NOP/mu CR (concentration ratio)” value (human NOP receptor; Table 1 series)?
A: 0.37

Q: What about the Emax (human NOP receptor; [1]) of the same compound?
A: 340 ± 22%

Q: What about the “mu pEC50 (CL95%)” value (human mu receptor; Table 1 series) of the same compound?
A: crc incomplete; 10 μM: 41 ± 4

Q: And the pEC50_mu (human mu receptor)?
A: crc incomplete

Q: And the activation at 10 µM (human mu receptor)?
A: 41 ± 4%

Q: How did the “NOP pEC50 (CL95%)” value (human NOP receptor; Table 1 series, FlexStation II) turn out when “YGGFNGARKSARK-NH2 [Compound 4, [Tyr^1,Asn^5]N/OFQ(1-13)-NH2]” was run?
A: 8.70 (8.26–9.11)

Q: And the “NOP/mu CR (concentration ratio)” value (human NOP receptor; Table 1 series)?
A: 0.002

Q: What about the Emax (human NOP receptor; [1]) of the same compound?
A: 327 ± 15%

Q: And the “mu pEC50 (CL95%)” value (human mu receptor; Table 1 series)?
A: crc incomplete; 10 μM: 209 ± 29

Q: What about the pEC50_mu (human mu receptor) of the same compound?
A: crc incomplete

Q: And the activation at 10 µM (human mu receptor)?
A: 209 ± 29%

Q: Which “NOP pEC50 (CL95%)” value (human NOP receptor; Table 1 series, FlexStation II) does the source give for `CCCC[C@H](NC(=O)[C@H](Cc1ccccc1)NC(=O)CNC(=O)CNC(=O)[C@@H](N)Cc1ccc(O)cc1)C(=O)NCC(=O)N[C@@H](C)C(=O)N[C@@H](CCCNC(=N)N)C(=O)N[C@@H](CCCCN)C(=O)N[C@@H](CO)C(=O)N[C@@H](C)C(=O)N[C@@H](CCCNC(=N)N)C(=O)N[C@@H](CCCCN)C(N)=O` [Compound 12, [Tyr^1,Nle^5]N/OFQ(1-13)-NH2] (H-YGGF[Nle]GARKSARK-NH2) here?
A: 8.77 (8.45–9.09)

Q: What about the “NOP/mu CR (concentration ratio)” value (human NOP receptor; Table 1 series) of the same compound?
A: 0.01

Q: What about the Emax (human NOP receptor; [1]) of the same compound?
A: 375 ± 9%

Q: And the “mu pEC50 (CL95%)” value (human mu receptor; Table 1 series)?
A: 6.74 (6.15–7.33)

Q: And the Emax (human mu receptor; read-out: mu Emax ± S.E.M, Table 1 series)?
A: 323 ± 4%

Q: Which Emax (human NOP receptor; read-out: NOP Emax ± S.E.M., Table 3 series, percent over the baseline fluorescence) does the source give for `Cc1cc(O)cc(C)c1C[C@H](N)C(=O)NCC(=O)NCC(=O)N[C@@H](Cc1ccccc1)C(=O)N[C@@H](Cc1ccc(O)cc1)C(=O)NCC(=O)N[C@@H](C)C(=O)N[C@@H](CCCNC(=N)N)C(=O)N[C@@H](CCCCN)C(=O)N[C@@H](CO)C(=O)N[C@@H](C)C(=O)N[C@@H](CCCNC(=N)N)C(=O)N[C@@H](CCCCN)C(N)=O` [Compound 30, [Dmt^1,Tyr^5]N/OFQ(1-13)-NH2] (H-[Dmt]GGFYGARKSARK-NH2) here?
A: 304 ± 21%

Q: And the Emax (human mu receptor; read-out: mu Emax ± S.E.M., Table 3 series)?
A: 410 ± 25%

Q: Which “NOP pEC50 (CL95%)” value (human NOP receptor; Table 2 series) does the source give for `C[C@H](NC(=O)CNC(=O)[C@@H](NC(=O)[C@H](Cc1ccccc1)NC(=O)CNC(=O)CNC(=O)[C@@H](N)Cc1ccc(O)cc1)c1ccccc1)C(=O)N[C@@H](CCCNC(=N)N)C(=O)N[C@@H](CCCCN)C(=O)N[C@@H](CO)C(=O)N[C@@H](C)C(=O)N[C@@H](CCCNC(=N)N)C(=O)N[C@@H](CCCCN)C(N)=O` [Compound 19, [Tyr^1,Phg^5]N/OFQ(1-13)-NH2] (H-YGGF[Phg]GARKSARK-NH2) here?
A: 7.57 (7.12–8.02)

Q: What about the “NOP/mu CR (concentration ratio)” value (human NOP receptor; Table 2 series) of the same compound?
A: 0.17

Q: What about the Emax (human NOP receptor; [2]) of the same compound?
A: 293 ± 31%

Q: What about the “mu pEC50 (CL95%)” value (human mu receptor; Table 2 series) of the same compound?
A: 6.81 (6.33–7.29)

Q: And the Emax (human mu receptor; [3])?
A: 287 ± 48%

Q: `C[C@H](NC(=O)CNC(=O)[C@H](Cc1ccc(N)cc1)NC(=O)[C@H](Cc1ccccc1)NC(=O)CNC(=O)CNC(=O)[C@@H](N)Cc1ccc(O)cc1)C(=O)N[C@@H](CCCNC(=N)N)C(=O)N[C@@H](CCCCN)C(=O)N[C@@H](CO)C(=O)N[C@@H](C)C(=O)N[C@@H](CCCNC(=N)N)C(=O)N[C@@H](CCCCN)C(N)=O` [Compound 27, [Tyr^1,(pNH2)Phe^5]N/OFQ(1-13)-NH2] (H-YGGF[Phe(4-NH2)]GARKSARK-NH2) was tested. Which Emax (human NOP receptor; [2]) did it give?
A: 274 ± 15%

Q: What about the Emax (human mu receptor; [3]) of the same compound?
A: 329 ± 37%

Q: For “YGGFTGARKSARK-NH2 [Compound 3, [Tyr^1]N/OFQ(1-13)-NH2, reference compound]”, which EC50 (human NOP receptor) is on record?
A: 0.741 nM and 0.708 nM

Q: And the EC50 (human mu receptor)?
A: 1580 nM
